In data set [1] the test system is KB, KBv200, MCF-7, MCF-7/adr, and A549 cells. The data set is described as follows: MTT anticancer screen, cancer cell panel. The class given is cell-based, human. Conditions: for IC50: Homo sapiens, MTT, KB, KBv200, MCF-7, MCF-7/adr, and A549 cells, read-out: IC50 values (potent cytotoxic activity); for IC50 values in MDR cells compared with parental sensitive cells: KBv200, MCF-7/adr versus KB, MCF-7. Here is the method: (§1) The cell lines were cultured in DMEM or RPMI 1640 containing 10% fetal bovine serum at 37 °C in the presence of 5% CO2. The cell lines were the oral epidermoid carcinoma cell lines KB and its vincristine-selected ABCB1-overexpressing KBv200 [10]; the breast carcinoma cell lines MCF-7 and its doxorubicin-selected ABCB1-overexpressing MCF-7/adr; the lung carcinoma cell line A549 and normal liver cell line LO2.
(§2) The MTT assay was used to evaluate the cytotoxicity of a number of compounds previously isolated from mangrove-derived fungi as described. Briefly, 3–4 × 10^3 cells were incubated in 96-well plates and allowed to attach overnight before compounds at full range concentrations were added. The concentrations were chosen so that the highest concentration killed most of the cells and the lowest killed none of the cells. After 72 h treatment, 0.5 mg/ml MTT was added to each well for an additional 4 h. Subsequently, the supernatant was removed, and the purple MTT-formazan crystals were dissolved by DMSO. Finally, absorbance was recorded at 540 nm with 655 nm as a reference filter using a Model 550 Microplate Reader (Bio-Rad, USA). Experiments were performed at least three times. The standard chemotherapeutic agent doxorubicin was used as a positive control in MTT assay and normal liver cell line LO2 was used to show whether cytotoxic activity was tumor-specific. The concentrations required to inhibit growth by 50% (IC50) were calculated from survival curves using the Bliss method.

The subject of data set [2] is normal liver LO2 cells. The data set is described as follows: MTT cytotoxicity assay, normal liver LO2 cells. The class given is cell-based. To be noted: for IC50: Homo sapiens, L02, 72 h treatment; for IC50 / growth inhibitory activity in LO2 cells (in words): normal liver LO2 cells; for sensitivity of cancer cells compared with normal liver LO2 cells: cancer cells versus LO2 cells. Here is the method:
as §1, §2

The subject of data set [3] is KBv200 cells. The data set is described as follows: MTT cytotoxicity assay, KBv200 cells. The class given is cell-based. Conditions: Homo sapiens, 72 h treatment, vincristine-selected ABCB1-overexpressing KBv200 cells. Here is the method:
as §1, §2
In general terms: Tetrazolium dyes change colour on reduction, which living cells bring about.

Data set [4] has as its system MCF-7/adr cells. The data set is described as follows: MTT cytotoxicity assay, MCF-7/adr cells. The class given is cell-based. Conditions: Homo sapiens, NCI/ADR-RES, 72 h treatment, doxorubicin-selected ABCB1-overexpressing MCF-7/adr cells. Here is the method: as §1, §2
Data set [5] has as its system MCF-7 cells. The data set is described as follows: MTT cytotoxicity assay, MCF-7 cells. In kind it is cell-based. Conditions: Homo sapiens, MCF7, 72 h treatment, MCF-7 breast carcinoma cells. Here is the method: as §1, §2
The subject of data set [6] is pcDNA3.1(+) DNA. The data set is described as follows: DNA binding assay (agarose gel electrophoresis). Conditions: 10, 100 or 200 μmol/L with 1 μg pcDNA3.1(+), 37 °C, 3 h; 1% agarose gel. On the procedure:
10, 100 or 200 μmol/L compounds were incubated with 1 μg pcDNA3.1(+) at 37 °C for 3 h. The mixtures were then subjected to electrophoresis on a 1% agarose gel, pre-stained with 0.5 μg/ml ethidium bromide, at 60 V for 40 min. Doxorubicin (DOX) was used as a positive control.

For data set [7], the system named is A549 cells. The data set is described as follows: MTT cytotoxicity assay, A549 cells. The class given is cell-based. To be noted: Homo sapiens, 72 h treatment, A549 lung carcinoma cells. Here is the method: as §1, §2
Data set [8] deals with KB cells. Put plainly: MTT cytotoxicity assay, KB cells. Conditions: Homo sapiens, 72 h treatment, KB oral epidermoid carcinoma cells. In kind it is cell-based. Here is the method:
as §1, §2

A value given as a limit tells only on which side of the number the result lay.

The term IC50 denotes the concentration that inhibits the measured activity by half. In the case of `Cc1c(CO)cc([N+](=O)[O-])cc1CO` [Compound 1], the IC50 was less than 50 µM in data set [1]; 6.59 ± 0.44 µM in data set [2]; 2.67 ± 0.17 µM in data set [3]; 2.34 ± 0.11 µM in data set [4]; 1.38 ± 0.07 µM in data set [5]; 2.71 ± 0.15 µM in data set [7]. The same compound showed a half-inhibitory concentration (IC50) in data set [8] of 1.57 ± 0.08 µM. The “sensitivity of cancer cells compared with normal liver LO2 cells” value in data set [2] is “more sensitive”. Moreover, the “DNA intercalation / binding to DNA” value in data set [6] was “none of the compounds investigated here showed binding to DNA”.
Take `Cc1c(O)cc(O)c(C(=O)O)c1C` [Compound 4]: the IC50 in data set [1] was less than 50 µM; in data set [2], 16.5 ± 1.22 µM; in data set [3], 6.74 ± 0.38 µM; in data set [4], 35.7 ± 2.08 µM; in data set [5], 11.7 ± 0.86 µM; in data set [7] it was 17.1 ± 1.03 µM. The same compound had an IC50 in data set [8] of 1.15 ± 0.06 µM. For the same compound, in data set [2], the “growth inhibitory activity in LO2 cells (in words)” value is given as “exhibited growth inhibitory activity in LO2 cells”. In addition, the “DNA intercalation / binding to DNA” value in data set [6] was “none of the compounds investigated here showed binding to DNA”.
`CCOC(=O)COc1cc(C)cc2c1C(=O)c1c(O)cccc1C2=O` [Compound 11]: the IC50 is less than 50 µM in data set [1]; 28.9 ± 1.46 µM in data set [2]; 18.9 ± 1.2 µM in data set [3]; 35.3 ± 2.77 µM in data set [4]; 13.2 ± 0.84 µM in data set [5]; 21.3 ± 1.6 µM in data set [7]. In addition, the IC50 in data set [8] amounted to 5.89 ± 0.37 µM. For the same compound, the “growth inhibitory activity in LO2 cells (in words)” value in data set [2] was “exhibited growth inhibitory activity in LO2 cells”. The “DNA intercalation / binding to DNA” value in data set [6] is “none of the compounds investigated here showed binding to DNA”.
Regarding `C=C/C=C/COc1cccc2c1C(=O)c1c(O)cccc1C2=O` [Compound 13], the 50% inhibitory concentration (IC50) in data set [1] is less than 50 µM; in data set [2], more than 50 µM; in data set [3], more than 50 µM; in data set [4] it was more than 50 µM; in data set [5], 16.3 ± 0.71 µM; in data set [7] it was 31.2 ± 2.02 µM. In data set [8], the IC50 amounted to 21 ± 1.35 µM. For the same compound, in data set [1], the “IC50 values in MDR cells compared with parental sensitive cells” value is on record as “much higher IC50 values”. The “DNA intercalation / binding to DNA” value in data set [6] is reported as “none of the compounds investigated here showed binding to DNA”.
Take `C#CCOc1cc(C)cc2c1C(=O)c1c(O)cccc1C2=O` [Compound 14]: the IC50 in data set [1] was less than 50 µM; in data set [2], 37.5 ± 1.64 µM; in data set [3], more than 50 µM; in data set [4], more than 50 µM; in data set [5], 35.2 ± 1.87 µM; in data set [7], 23.5 ± 1.32 µM. Also, it took 11.9 ± 0.69 µM to reach half-maximal inhibition in data set [8] (IC50). In addition, the “IC50 values in MDR cells compared with parental sensitive cells” value in data set [1] is “much higher IC50 values”. In addition, the “DNA intercalation / binding to DNA” value in data set [6] is “none of the compounds investigated here showed binding to DNA”.
As to `O=C1c2cc(O)cc(O)c2C(=O)c2c1cc1c(c2O)C2CCCC(O1)O2` (stereo not drawn) [Compound 18], the IC50 in data set [1] is less than 50 µM; in data set [2], more than 50 µM; in data set [3] it was 44.6 ± 2.57 µM; in data set [4], 25 ± 1.06 µM; in data set [5], 17.2 ± 0.95 µM; in data set [7], 33.9 ± 2.31 µM. The same compound displayed an IC50 in data set [8] of 28.2 ± 1.66 µM. Moreover, the “sensitivity of cancer cells compared with normal liver LO2 cells” value in data set [2] is recorded as “more sensitive”. Besides, in data set [6], the “DNA intercalation / binding to DNA” value is given as “none of the compounds investigated here showed binding to DNA”.
Turning to `O=C1c2ccc(O)cc2OCC1c1ccc(O)cc1` (stereo not drawn) [Compound 78], the half-inhibitory concentration (IC50) was less than 50 µM in data set [1]; 33.6 ± 2.06 µM in data set [2]; 9.37 ± 0.61 µM in data set [3]; 24.9 ± 1.15 µM in data set [4]; 19.8 ± 0.89 µM in data set [5]; 14.9 ± 0.64 µM in data set [7]. In addition, the IC50 in data set [8] was 8.63 ± 0.57 µM. For the same compound, the “cytotoxic / anticancer activity (in words)” value in data set [1] (MTT assay in vitro) is given as “exhibited a cytotoxicity targeted to cancer cells”. Also, the “sensitivity of cancer cells compared with normal liver LO2 cells” value in data set [2] is “more sensitive”. In addition, in data set [6], the “DNA intercalation / binding to DNA” value is listed as “none of the compounds investigated here showed binding to DNA”.
On to `COc1cccc2c1C(=O)c1c(O)c3c(c(O)c1C2=O)C[C@@](O)(C(=O)CO)C[C@@H]3O[C@H]1C[C@H](N)[C@H](O)[C@H](C)O1` [Doxorubicin, reference compound], for which the “IC50 values in MDR cells compared with parental sensitive cells” value in data set [1] is on record as “much higher IC50 values”. Further, the IC50 is 0.11 ± 0.01 µM in data set [2]; 3.21 ± 0.12 µM in data set [3]; 22.3 ± 1.56 µM in data set [4]; 0.39 ± 0.02 µM in data set [5]; 1.67 ± 0.09 µM in data set [7]; 0.05 ± 0.003 µM in data set [8]. The “DNA intercalation / binding to DNA” value in data set [6] was “effectively intercalated into DNA in a concentration-dependent manner”.

The record behind these values is paper PMC2866477, “Anticancer Effect and Structure-Activity Analysis of Marine Products Isolated from Metabolites of Mangrove Fungi in the South China Sea” (Marine Drugs, 2010).
